Test results reported in the supplement of paper PMC8671470.

What was measured:
Conditions in all cases: 72 h
[1] = tested on: LAMA-84
Outline: (§1)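 For the IC50, dose–response curves were fitted with a log-logistic model. The data came from fifteen myeloid leukaemia cell lines grown in RPMI 1640 at densities in the linear growth range and incubated in 384-well plates for 72 h at 37 °C under 5% CO2. Doses were five tenfold steps from 1 to 10,000 nM in duplicate, and luminescent ATP viability was normalised to vehicle and to a positive control at 10 µM before four-parameter fitting.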

[2] = tested on: HL-60
Outline: as §1

[3] = tested on: KCL-22
Outline: as §1

[4] = tested on: BV-173
Outline: as §1

[5] = tested on: MOLM-13
Outline: as §1

[6] = tested on: HEL
Outline: as §1

[7] = tested on: THP-1
Outline: as §1

[8] = tested on: SHI-1
Outline: as §1

[9] = tested on: ML-2
Outline: as §1

[10] = tested on: KG-1
Outline: as §1

[11] = tested on: myeloid leukemia patient primary cells Pat.1; assay: cell viability (% survival relative to DMSO control); higher = less cytotoxic
Outline: (§2)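 Thawed, Ficoll-purified mononuclear cells from AML or CML patients in RPMI 1640 with 10% FBS were seeded at 10,000 cells/well on 384-well plates pre-printed with 70 compounds at five tenfold concentrations, 1–10,000 nM, in duplicate, for 72 h. Viability was read by CellTiter-Glo and normalised to DMSO and 10 μM proteasome-inhibitor wells. Where given, area under the curve came from four-parameter log-logistic fits (drc, PharmacoGx R packages).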

[12] = tested on: myeloid leukemia patient primary cells Pat.8; assay: as above
Outline: as §2

[13] = tested on: myeloid leukemia patient primary cells Pat.5; assay: as above
Outline: as §2

[14] = tested on: myeloid leukemia patient primary cells Pat.6; assay: as above
Outline: as §2

[15] = tested on: myeloid leukemia patient primary cells Pat.14; assay: as above
Outline: as §2

[16] = tested on: myeloid leukemia patient primary cells Pat.7; assay: as above
Outline: as §2

[17] = tested on: myeloid leukemia patient primary cells Pat.13; assay: as above
Outline: as §2

[18] = tested on: myeloid leukemia patient primary cells Pat.2; assay: as above
Outline: as §2

[19] = tested on: myeloid leukemia patient primary cells Pat.3; assay: as above
Outline: as §2

[20] = tested on: myeloid leukemia patient primary cells Pat.10; assay: as above
Outline: as §2

[21] = tested on: myeloid leukemia patient primary cells Pat.12; assay: as above
Outline: as §2

[22] = tested on: myeloid leukemia patient primary cells Pat.4; assay: as above
Outline: as §2

[23] = tested on: myeloid leukemia patient primary cells Pat.9; assay: as above
Outline: as §2

[24] = tested on: myeloid leukemia patient primary cells Pat.11; assay: as above
Outline: as §2

[25] = tested on: myeloid leukemia patient primary cells Pat.15; assay: as above
Outline: as §2

[26] = tested on: HL-60; assay: area under dose-response curve (viability, 1 nM-10 uM) (fraction (0-1)); higher = more sensitive
Outline: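 A rescreen of the full library used HL-60 cells in RPMI 1640 with 10% FBS on 384-well plates, run in duplicate at five tenfold concentrations (1–10,000 nM). Each screen included DMSO or 100 nM of one of three metabolic inhibitors and ran 72 h at 37 °C, 5% CO2. CellTiter-Glo viability was scaled between DMSO and 10 μM proteasome-inhibitor wells. Any area under the curve comes from four-parameter log-logistic fits with drc and PharmacoGx.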

O=C1c2cc([N+](=O)[O-])ccc2-n2c1nc1ccccc1c2=O [GNF-Pf-3777]
Conditions | IC50 (cell viability) [nM]
[1] | 1830
[2] | 1280
[3] | 538
[4] | 1640
[5] | 1580
[6] | 934
[7] | 1220
[8] | 1930
[9] | 6050
[10] | 1290

Conditions | area under dose-response curve, co-treatment: AZD3965 100 nM | area under dose-response curve, co-treatment: DMSO vehicle | area under dose-response curve, co-treatment: GSK2194069 100 nM | area under dose-response curve, co-treatment: pictilisib 100 nM | cell viability, 1 nM [%] | cell viability, 10 nM [%] | cell viability, 100 nM [%] | cell viability, 1000 nM [%] | cell viability, 10000 nM [%]
[11] | – | – | – | – | > 100 | 94.8 | 86.5 | 77.2 | 65.1
[12] | – | – | – | – | 97.5 | 94.9 | 88.4 | 84 | 64.9
[13] | – | – | – | – | > 100 | 63 | 73 | 36.1 | 3.37
[14] | – | – | – | – | > 100 | 98.8 | 98.6 | 94.3 | 66.8
[15] | – | – | – | – | 96.8 | 95 | 96.8 | 85.7 | 54.2
[16] | – | – | – | – | 95.9 | 70.7 | > 100 | 97.1 | 21.8
[17] | – | – | – | – | 94.2 | 96.4 | 96.6 | 80.8 | 35.8
[18] | – | – | – | – | 98.3 | 93.2 | 95.5 | 93.7 | 62.3
[19] | – | – | – | – | 93.1 | 86.9 | 72.7 | 46.2 | 20
[20] | – | – | – | – | 61.7 | 47.7 | 77.9 | 36.6 | 15.5
[21] | – | – | – | – | 98 | 96.3 | 99.1 | 99.3 | 78.6
[22] | – | – | – | – | 97.7 | 97 | 96 | 79.5 | 19
[23] | – | – | – | – | 82.9 | 68.9 | 60.9 | 63.4 | 25.8
[24] | – | – | – | – | > 100 | 97.9 | 94 | 86.8 | 64.4
[25] | – | – | – | – | 90.6 | 89.1 | 96.8 | 87.9 | 40.2
[26] | 0.15 | 0.122 | 0.154 | 0.165 | – | – | – | – | –

Nc1nc(Cl)nc2c1ncn2[C@H]1C[C@H](O)[C@@H](CO)O1 [Cladribine]
Conditions | IC50 (cell viability) [nM]
[1] | 99.2
[2] | 47.1
[3] | 142
[4] | 4.38
[5] | 25.3
[6] | 33.5
[7] | 358
[8] | 43.9
[9] | 238
[10] | 384

Conditions | area under dose-response curve, co-treatment: AZD3965 100 nM | area under dose-response curve, co-treatment: DMSO vehicle | area under dose-response curve, co-treatment: GSK2194069 100 nM | area under dose-response curve, co-treatment: pictilisib 100 nM | cell viability, 1 nM [%] | cell viability, 10 nM [%] | cell viability, 100 nM [%] | cell viability, 1000 nM [%] | cell viability, 10000 nM [%]
[11] | – | – | – | – | 95.2 | 98.3 | > 100 | 90.3 | 94.1
[12] | – | – | – | – | 88.1 | 77.7 | 12.6 | 3.65 | 3.19
[13] | – | – | – | – | 50.7 | 35.2 | 9.01 | 0.265 | 1.33
[14] | – | – | – | – | 95.1 | 74.3 | 19.2 | 6.84 | 6.92
[15] | – | – | – | – | 90.7 | 75.3 | 17.3 | 3.16 | 0.937
[16] | – | – | – | – | 97.6 | 82.8 | 17.1 | < 0 | < 0
[17] | – | – | – | – | 96.2 | 54.6 | 12.5 | 4.44 | 4.27
[18] | – | – | – | – | > 100 | 89.8 | 53.5 | 15.5 | 10.1
[19] | – | – | – | – | 92.1 | 69.8 | 7.92 | 6.26 | 6.06
[20] | – | – | – | – | 95 | 33.1 | 0.135 | 2.16 | 6.29
[21] | – | – | – | – | 94.5 | 83.1 | 54.4 | 20.5 | 7.86
[22] | – | – | – | – | 99 | 55.6 | 13.5 | 4.74 | 6.11
[23] | – | – | – | – | 84.9 | 34 | < 0 | 1.24 | 4.28
[24] | – | – | – | – | > 100 | 96.6 | 76.6 | 59.8 | 63.8
[25] | – | – | – | – | 95.4 | 82.7 | 88.4 | 60.2 | 13.9
[26] | 0.45 | 0.394 | 0.459 | 0.515 | – | – | – | – | –
